Results on six compounds are retold here after PubChem BioAssay (NCI).

Test systems include KM12 colon; OVCAR-4 ovarian; SN12C renal; NCI-H522 lung; RXF 393 renal; A498 renal; RPMI-8226 leukemia; SK-OV-3 ovarian; HCC-2998 colon; ACHN renal.
What all share (experiment): growth of human tumour cells (NCI), 48 h

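Grown in 96-well plates, cells were treated for 48 hours with each compound at five concentrations. Insufficient inhibition: endpoint recorded as highest concentration tested. GI50 = concentration required for 50% inhibition of growth. At the TGI there is no net growth.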

Take `OCc1ccc(N2CCCC2c2ccccc2)cc1Cl` (stereo not given): the GI50 was 4.17 µM in the assay with KM12 colon; 1.39 µM in the assay with OVCAR-4 ovarian; 8.22 µM with SN12C renal; 5.18 µM in the assay with NCI-H522 lung; 3.2 µM in the assay on RXF 393 renal; 0.136 µM in the assay on A498 renal. Moreover, the GI50 in the assay with RPMI-8226 leukemia was 4.36 µM; with SK-OV-3 ovarian, 2.89 µM; in the assay with HCC-2998 colon it was 4.88 µM; with ACHN renal it was 11.7 µM. Besides, the TGI with KM12 colon was found to be 19.4 µM; with OVCAR-4 ovarian, 14.2 µM; in the assay with SN12C renal it was 21.7 µM; with NCI-H522 lung, 18.6 µM; in the assay on RXF 393 renal, 15.2 µM; in the assay with A498 renal, 0.306 µM. Besides, the TGI is 23.6 µM with RPMI-8226 leukemia, 13 µM in the assay with SK-OV-3 ovarian, 17.5 µM in the assay on HCC-2998 colon and 26.9 µM in the assay with ACHN renal.

In the case of `CN(C)CCCn1c(=O)c2ccccc2c2ccccc21`, the GI50 in the assay on KM12 colon is 15.5 µM; in the assay with OVCAR-4 ovarian, 22.3 µM; in the assay on SN12C renal, 16.9 µM; in the assay on NCI-H522 lung, 12.5 µM; with RXF 393 renal, 12.5 µM; in the assay with A498 renal it was 15.7 µM. In addition, the GI50 in the assay on RPMI-8226 leukemia is 26.9 µM; in the assay with SK-OV-3 ovarian, 26.6 µM; in the assay with HCC-2998 colon it was 16.4 µM; in the assay with ACHN renal, 4.84 µM. In addition, the TGI was 66.7 µM with KM12 colon; 70.5 µM in the assay with OVCAR-4 ovarian; greater than 100 µM in the assay with SN12C renal; 30.6 µM in the assay with NCI-H522 lung; 26.7 µM in the assay with RXF 393 renal; 30.6 µM with A498 renal. Besides, the TGI in the assay with RPMI-8226 leukemia is 77.7 µM; in the assay with SK-OV-3 ovarian, greater than 100 µM; with HCC-2998 colon it was 34.8 µM; in the assay on ACHN renal, greater than 100 µM.

For the compound `COc1ccc(-c2cc(-c3ccc(C)cc3)nc3nc(=S)[nH]c(N)c23)cc1`, the GI50 in the assay on KM12 colon is 16.2 µM; in the assay with OVCAR-4 ovarian, 74.3 µM; in the assay with SN12C renal, 20.5 µM; in the assay on NCI-H522 lung, 19.3 µM; in the assay with RXF 393 renal, 20.5 µM; with A498 renal it was 19.2 µM. Moreover, the GI50 is 18.4 µM with RPMI-8226 leukemia, 40.4 µM with SK-OV-3 ovarian, 23.6 µM in the assay with HCC-2998 colon and 18.8 µM in the assay with ACHN renal. Moreover, the TGI in the assay with KM12 colon is 36 µM; in the assay with OVCAR-4 ovarian it was greater than 100 µM; in the assay on SN12C renal, 48.6 µM; in the assay on NCI-H522 lung, 39 µM; in the assay with RXF 393 renal, 44.5 µM; with A498 renal, 39.4 µM. Besides, the TGI in the assay with RPMI-8226 leukemia is 44.4 µM; in the assay with SK-OV-3 ovarian, greater than 100 µM; in the assay on HCC-2998 colon, 42.9 µM; with ACHN renal it was 62.5 µM.

Regarding `CC(=O)/C=C/c1cn(C(=O)OC(C)(C)C)c2ccc(Br)cc12`, the GI50 in the assay on KM12 colon is 13.8 µM; with OVCAR-4 ovarian it was 25.7 µM; in the assay with SN12C renal, 13.8 µM; in the assay on NCI-H522 lung, 17.7 µM; in the assay with RXF 393 renal it was 15.6 µM; in the assay with A498 renal, 20.1 µM. Also, the GI50 with RPMI-8226 leukemia was 9.41 µM; in the assay with SK-OV-3 ovarian, 20.6 µM; in the assay with HCC-2998 colon, 18 µM; in the assay on ACHN renal it was 11.6 µM. The TGI in the assay with KM12 colon was 29.1 µM; in the assay with OVCAR-4 ovarian it was greater than 100 µM; in the assay on SN12C renal it was 36.4 µM; in the assay on NCI-H522 lung, 63.3 µM; in the assay on RXF 393 renal, 37 µM; with A498 renal, 39.7 µM. For the same compound, the TGI in the assay on RPMI-8226 leukemia is greater than 66.5 µM; in the assay with SK-OV-3 ovarian, 46.7 µM; in the assay with HCC-2998 colon, 37.4 µM; in the assay on ACHN renal, 24.8 µM.

For `O=C1/C(=C/c2ccccc2[N+](=O)[O-])Cc2ccccc21`, the GI50 is 3.97 µM with KM12 colon; 2.95 µM with OVCAR-4 ovarian; 2.54 µM in the assay with SN12C renal; 1.7 µM in the assay on NCI-H522 lung; 1.45 µM with RXF 393 renal; 2.17 µM in the assay on A498 renal. The GI50 in the assay on RPMI-8226 leukemia was 2.44 µM; in the assay on SK-OV-3 ovarian it was 6.86 µM; in the assay on HCC-2998 colon, 1.64 µM; in the assay on ACHN renal, 1.87 µM. Also, the TGI was 15.7 µM in the assay with KM12 colon; 29.4 µM in the assay on OVCAR-4 ovarian; 9.17 µM in the assay on SN12C renal; 3.13 µM in the assay on NCI-H522 lung; 2.99 µM in the assay on RXF 393 renal; 5.36 µM with A498 renal. The TGI in the assay with RPMI-8226 leukemia is 7.84 µM; in the assay on SK-OV-3 ovarian it was 38.4 µM; in the assay with HCC-2998 colon, 3.14 µM; in the assay with ACHN renal, 4.87 µM.

In the case of `CCOc1ccccc1C(=O)N1CCN(c2cc(Cl)cc(Cl)c2)CC1`, the GI50 was 0.0361 µM in the assay on KM12 colon; 0.266 µM in the assay on OVCAR-4 ovarian; 0.0493 µM with SN12C renal; 0.0142 µM in the assay with NCI-H522 lung; 0.0175 µM in the assay with RXF 393 renal; 0.0288 µM with A498 renal. Further, the GI50 in the assay with RPMI-8226 leukemia is 0.0369 µM; in the assay with SK-OV-3 ovarian, 0.258 µM; in the assay on HCC-2998 colon it was 0.0381 µM; with ACHN renal it was 0.051 µM. The TGI in the assay on KM12 colon stood at 13.6 µM; in the assay on OVCAR-4 ovarian, 18.5 µM; with SN12C renal, 14.7 µM; in the assay with NCI-H522 lung, 0.358 µM; with RXF 393 renal, 1.06 µM; with A498 renal, 4.36 µM. The TGI in the assay with RPMI-8226 leukemia was found to be 5.32 µM; in the assay with SK-OV-3 ovarian, 9.14 µM; in the assay with HCC-2998 colon it was 10.7 µM; in the assay on ACHN renal, 14.6 µM.
